Test results: patent publication US7754875B1, “Halide-free glucosamine base-organic acid salt compositions” (JFC Technologies, LLC, priority 2004, dated 2010)

Legend:
[1] = Stability of product kept in capped bottle in the refrigerator (color); type: physicochemical; details: six months
Description: (§1) 17.9 g of halide-free glucosamine base was mixed with 150 cc of purified water in a reaction vessel. After a clear solution was obtained, 16 g of α-hydroxy octanoic acid were slowly added, with stirring, to the glucosamine base solution. It was noted that the reaction was slightly exothermic since the temperature rose to 35° C. The reaction mixture was filtered and the water was removed by freeze-drying at a pressure of about 200 milliTorre and a temperature of about −45° C. 33 g of an off-white crystalline powder were obtained. The product was placed in a capped bottle that was placed in the refrigerator. […] A sample of the product was placed in an open dish exposed to the air at ambient temperature.

[2] = Stability of sample in open dish exposed to the air at ambient temperature (color change); type: physicochemical
Description: as §1
Example 1 was repeated using 300 cc of purified water to which 16.5 g of polyethylene glycol homopolymer had been added. 49 g (97.2% yield) of the white salt product were obtained. A sample of this product was placed in an open dish exposed to the air at ambient temperature.
A sample of the Example 3 product was placed in a dish exposed to the air at ambient temperature. […] A sample of the Example 4 product was placed in a dish exposed to the air at ambient temperature.

Row | SMILES | color of product kept in the refrigerator [1] | color of sample after exposure to the air at ambient temperature ([2]; open dish, 3 days) | color of sample after exposure to the air at ambient temperature ([2]; dish, 1 day)
1 | CCCCCCC(O)C(=O)O.NC1C(O)OC(CO)C(O)C1O (stereo not drawn) [Example 1] | remained off-white in color | developed a yellow color | –
2 | N[C@H]1C(O)O[C@H](CO)[C@@H](O)[C@@H]1O.O=C(O)CC(O)(CC(=O)O)C(=O)O [Example 3] | – | – | developed a yellow-orange color
